{
  "source": "patent US10806693B2",
  "about": "“Method for increasing lipolysis using a composition comprising bioactive Nelumbo nucifera (lotus) extract” (ISP Investments LLC, priority 2016, dated 2020)",
  "assay": "Lipolysis: glycerol release from differentiated 3T3-L1 adipocytes",
  "assay_type": "cell-based",
  "settings": "2 mM, twice a day for 48 hours",
  "experimental": "This study aims to evaluate in vitro effect of Nelumbo nucifera (Lotus) Extract on lipolysis by evaluating glycerol release on preadipocytes. Lipolysis is the hydrolysis of triglycerides into glycerol and fatty acids. The amount of glycerol release will be proportional to both the amount of stored triglyceride and the degree of lipolysis 3T3-L1 pre-adipocytes (ATCC) were cultured in DMEM 4.5 g/L glucose (Lonza) supplemented with 10% of FBS (Lonza), 2 mM of L-Glutamine (Lonza) and 100 μg/ml of Primocin (InvivoGen). 2 days after the cells' confluence, differentiation into adipocytes was induced by adding 0.5 mM IBMX, 1 μM dexamethasone and 10 μg/ml insulin (Sigma) in the culture medium for 3 days. Afterwards, IBMX and dexamethasone were removed and only the insulin was maintained for 3 to 4 days; then, the insulin was also removed, and the cells were maintained in culture medium for another 3 days. After differentiation, cells were treated with Nelumbo nucifera (Lotus) Extract of example 1 diluted at 1/10.000 eme in culture medium, further noted as Lotus 0.01% (volume/volume) or with 2 mM caffeine positive control, twice a day for 48 hours. Then glycerol release was measured using Adipolysis Assay Kit (Cayman Chemical), according to the manufacturer's instructions.",
  "data": [
    {"smiles": "Cn1c(=O)c2c(ncn2C)n(C)c1=O", "note": "[Caffeine, caffeine]", "values": [
      {"measurement": "Glycerol release (% of untreated)", "result": "131 % of untreated"}
    ]}
  ]
}
